Experimental data taken from US20250002455A1, “NEW N-PHENYLPYRROLAMIDE INHIBITORS OF DNA GYRASE AND TOPOISOMERASE IV WITH ANTIBACTERIAL ACTIVITY” (priority 2020, published 2025).
In brackets after ≈: the same amount, converted by molar mass. Where two headings read alike, the source gives them in different places.

Columns and labels:
A. baumannii ATCC 17978 = assay: Microbroth dilution MIC (CLSI); type: cell-based; conditions: Acinetobacter baumannii, ATCC17978
Protocol: (§1) The chemical entities described in the present invention were assessed for their antimicrobial activity using a microbroth dilution assay as recommended by the CLSI (Methods for Dilution Antimicrobial Susceptibility Tests for Bacteria That Grow Aerobically, and Methods for Antimicrobial Susceptibility Testing of Anaerobic Bacteria, Clinical and Laboratory Standards Institute, Document M07-A8, and M11-A8, Wayne, PA 19087, USA, 2012.). Compounds were dissolved by using 100% DMSO. Serial two-fold dilutions of each compound were made by using 100% DMSO as the diluent.
(§2) A library of Gram-negative and Gram-positive microbes and their drug- and multidrug-resistant variants were employed as test organisms. The MIC (minimum inhibitory concentration) was determined as the lowest concentration of an individual drug that lead to no visible growth.

E. faecalis ATCC 29212 = assay: Microbroth dilution MIC (CLSI); type: cell-based; conditions: Enterococcus faecalis, ATCC29212
Protocol: as §1, §2

S. aureus ATCC 29213 = assay: Microbroth dilution MIC (CLSI); type: cell-based; conditions: Staphylococcus aureus, ATCC29213
Protocol: as §1, §2

E. coli ATCC 25922 = assay: Microbroth dilution MIC (CLSI); type: cell-based; conditions: Escherichia coli, ATCC25922
Protocol: as §1, §2

P. aeruginosa ATCC 27853 = assay: Microbroth dilution MIC (CLSI); type: cell-based; conditions: Pseudomonas aeruginosa, ATCC27853
Protocol: as §1, §2

[1] = system: S. aureus ATCC 43300 (MRSA); assay: Microbroth dilution MIC (CLSI); type: cell-based; conditions: Staphylococcus aureus
Protocol: as §1, §2

[2] = system: S. aureus ATCC 700699 (VISA); assay: Microbroth dilution MIC (CLSI); type: cell-based; conditions: Staphylococcus aureus
Protocol: as §1, §2

[3] = system: E. spp. cloacae ATCC 13047; assay: Microbroth dilution MIC (CLSI); type: cell-based; conditions: Enterobacter cloacae, ATCC13047
Protocol: as §1, §2

E. faecium ATCC 700221 = assay: Microbroth dilution MIC (CLSI); type: cell-based; conditions: Enterococcus faecium, ATCC700221
Protocol: as §1, §2

K. pneumoniae ATCC 10031 = assay: Microbroth dilution MIC (CLSI); type: cell-based; conditions: Klebsiella pneumoniae, ATCC10031
Protocol: as §1, §2

E. coli DNA gyrase = molecular target: T1, E. coli DNA gyrase (Escherichia coli, UniProt P0AES6); assay: biochemical
T1 construct: purchased Inspiralis
Protocol: (§3) Inhibitory activities for compounds of the present invention were determined on E. coli and S. aureus DNA gyrase and topoisomerase IV in an assay from Inspiralis on streptavidin-coated 96-well microtiter plates from Thermo scientific Pierce. […] After washing off the unbound oligonucleotide, the enzyme test was performed. […] Reaction solutions were incubated at 37° C. for 30 min. After that, the TF buffer (50 mM NaOAc with pH 5.0, 50 mM NaCl and 50 mM MgCl2) was added to terminate the enzymatic reaction. After additional incubation for 30 min at rt, during which biotin-oligonucleotide-plasmid triplex was formed, the unbound plasmid was washed off using TF buffer and SybrGOLD in T10 buffer (10 mM Tris HCl with pH 8.0 and 1 mM EDTA) was added. […] GraphPad Prism 6.0 software was used to calculate the IC50 values. The result is given as the average value of three independent measurements. […] Chemoth.

S. aureus DNA gyrase = molecular target: T2, S. aureus DNA gyrase (Staphylococcus aureus, UniProt P0A0K8); assay: biochemical
T2 construct: purchased Inspiralis
T2 sequence (P20831 whole entry): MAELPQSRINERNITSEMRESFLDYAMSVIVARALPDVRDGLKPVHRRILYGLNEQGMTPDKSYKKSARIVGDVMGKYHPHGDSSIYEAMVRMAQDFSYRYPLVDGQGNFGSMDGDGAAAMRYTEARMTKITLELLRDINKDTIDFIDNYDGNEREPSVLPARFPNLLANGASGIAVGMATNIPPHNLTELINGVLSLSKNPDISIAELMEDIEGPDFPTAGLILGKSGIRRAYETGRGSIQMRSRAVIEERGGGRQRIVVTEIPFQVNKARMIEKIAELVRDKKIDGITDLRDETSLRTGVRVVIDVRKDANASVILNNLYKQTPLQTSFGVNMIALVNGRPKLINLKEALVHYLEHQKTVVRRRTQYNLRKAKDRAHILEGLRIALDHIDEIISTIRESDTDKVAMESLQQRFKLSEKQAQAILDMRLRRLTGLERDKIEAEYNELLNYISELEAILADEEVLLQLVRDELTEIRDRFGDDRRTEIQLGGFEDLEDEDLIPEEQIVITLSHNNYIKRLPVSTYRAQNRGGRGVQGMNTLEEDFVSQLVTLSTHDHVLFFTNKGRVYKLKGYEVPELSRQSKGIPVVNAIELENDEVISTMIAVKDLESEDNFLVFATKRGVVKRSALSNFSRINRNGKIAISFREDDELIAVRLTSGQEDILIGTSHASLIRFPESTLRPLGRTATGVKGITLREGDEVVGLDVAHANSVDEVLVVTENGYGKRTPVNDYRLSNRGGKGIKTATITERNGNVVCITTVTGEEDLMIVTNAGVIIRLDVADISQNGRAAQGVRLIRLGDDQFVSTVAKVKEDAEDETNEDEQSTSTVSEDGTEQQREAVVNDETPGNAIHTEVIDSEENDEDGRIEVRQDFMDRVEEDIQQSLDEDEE
T2 sequence (P0A0K8 whole entry): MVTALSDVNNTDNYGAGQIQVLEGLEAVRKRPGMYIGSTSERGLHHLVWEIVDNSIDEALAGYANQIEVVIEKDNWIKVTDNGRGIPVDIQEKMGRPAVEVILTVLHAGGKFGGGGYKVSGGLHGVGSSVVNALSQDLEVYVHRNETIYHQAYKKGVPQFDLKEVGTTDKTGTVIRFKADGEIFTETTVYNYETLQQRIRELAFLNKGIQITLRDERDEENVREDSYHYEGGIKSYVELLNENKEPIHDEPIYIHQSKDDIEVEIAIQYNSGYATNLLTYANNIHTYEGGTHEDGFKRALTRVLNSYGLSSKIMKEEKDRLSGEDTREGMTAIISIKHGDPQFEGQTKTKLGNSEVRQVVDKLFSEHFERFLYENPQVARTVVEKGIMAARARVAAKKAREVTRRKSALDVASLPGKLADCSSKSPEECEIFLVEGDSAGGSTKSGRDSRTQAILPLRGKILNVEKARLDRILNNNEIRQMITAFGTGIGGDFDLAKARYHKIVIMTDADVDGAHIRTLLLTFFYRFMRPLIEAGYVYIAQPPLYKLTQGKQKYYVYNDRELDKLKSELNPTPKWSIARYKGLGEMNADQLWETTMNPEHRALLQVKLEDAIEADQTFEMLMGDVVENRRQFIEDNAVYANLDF
Protocol: as §3

E. coli topoisomerase IV = molecular target: T3, E. coli topoisomerase IV (Escherichia coli, UniProt P20083); assay: biochemical; conditions: for remaining activity at 1 µM: 1 μM compound; for remaining activity at 10 µM: 10 μM compound
T3 construct: purchased Inspiralis
T3 sequence (P0AFI2 whole entry): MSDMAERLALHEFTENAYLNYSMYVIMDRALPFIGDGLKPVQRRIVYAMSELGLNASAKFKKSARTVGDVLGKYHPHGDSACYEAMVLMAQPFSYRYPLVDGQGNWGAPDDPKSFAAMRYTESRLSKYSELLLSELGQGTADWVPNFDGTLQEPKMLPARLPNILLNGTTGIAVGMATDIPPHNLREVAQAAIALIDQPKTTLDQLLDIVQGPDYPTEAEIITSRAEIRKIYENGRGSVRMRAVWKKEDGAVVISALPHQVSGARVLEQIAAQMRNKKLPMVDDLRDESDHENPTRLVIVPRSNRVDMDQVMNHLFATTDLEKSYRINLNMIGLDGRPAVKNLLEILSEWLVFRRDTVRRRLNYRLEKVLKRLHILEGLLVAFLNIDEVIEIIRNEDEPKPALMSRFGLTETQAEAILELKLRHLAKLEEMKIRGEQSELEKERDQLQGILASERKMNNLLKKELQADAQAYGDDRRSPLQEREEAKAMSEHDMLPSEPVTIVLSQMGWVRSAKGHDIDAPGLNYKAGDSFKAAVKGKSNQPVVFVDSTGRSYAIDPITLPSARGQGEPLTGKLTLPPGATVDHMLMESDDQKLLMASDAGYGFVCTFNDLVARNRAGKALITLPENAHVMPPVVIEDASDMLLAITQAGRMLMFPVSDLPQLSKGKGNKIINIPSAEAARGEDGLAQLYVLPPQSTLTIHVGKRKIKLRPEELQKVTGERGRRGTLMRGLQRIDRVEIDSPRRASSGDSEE
T3 sequence (P20083 whole entry): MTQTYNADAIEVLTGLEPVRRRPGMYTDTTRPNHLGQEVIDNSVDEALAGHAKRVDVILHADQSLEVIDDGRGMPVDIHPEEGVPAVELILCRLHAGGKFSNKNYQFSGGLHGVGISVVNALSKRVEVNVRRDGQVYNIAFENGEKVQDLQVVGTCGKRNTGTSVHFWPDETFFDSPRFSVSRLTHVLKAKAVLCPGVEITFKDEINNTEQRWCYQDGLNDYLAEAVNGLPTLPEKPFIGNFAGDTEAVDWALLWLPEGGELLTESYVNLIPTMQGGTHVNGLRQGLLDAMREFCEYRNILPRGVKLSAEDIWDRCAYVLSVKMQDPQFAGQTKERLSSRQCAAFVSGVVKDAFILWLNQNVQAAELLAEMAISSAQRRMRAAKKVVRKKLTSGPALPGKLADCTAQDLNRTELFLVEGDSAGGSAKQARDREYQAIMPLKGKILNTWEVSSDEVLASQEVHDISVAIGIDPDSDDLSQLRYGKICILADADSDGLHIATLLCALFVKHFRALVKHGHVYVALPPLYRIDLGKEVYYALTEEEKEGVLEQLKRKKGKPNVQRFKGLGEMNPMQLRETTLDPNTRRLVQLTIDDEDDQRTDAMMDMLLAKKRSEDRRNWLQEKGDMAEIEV
Protocol: Inhibitory activities for compounds of the present invention were determined on E. coli and S. aureus DNA gyrase and topoisomerase IV in an assay from Inspiralis on streptavidin-coated 96-well microtiter plates from Thermo scientific Pierce. […] After washing off the unbound oligonucleotide, the enzyme test was performed. […] Reaction solutions were incubated at 37° C. for 30 min. After that, the TF buffer (50 mM NaOAc with pH 5.0, 50 mM NaCl and 50 mM MgCl2) was added to terminate the enzymatic reaction. After additional incubation for 30 min at rt, during which biotin-oligonucleotide-plasmid triplex was formed, the unbound plasmid was washed off using TF buffer and SybrGOLD in T10 buffer (10 mM Tris HCl with pH 8.0 and 1 mM EDTA) was added. […] Initial screening was done at 100 or 10 nM concentration of inhibitors against E. coli DNA gyrase or 1 μM or 100 nM concentration against S. aureus DNA gyrase and E. coli and S. aureus topo IV. […] GraphPad Prism 6.0 software was used to calculate the IC50 values. The result is given as the average value of three independent measurements. […] Chemoth.

[4] = A. baumannii ATCC 17978, read-out: MIC
[5] = E. faecalis ATCC 29212, read-out: MIC
[6] = S. aureus ATCC 29213, read-out: MIC
[7] = E. coli ATCC 25922, read-out: MIC
[8] = P. aeruginosa ATCC 27853, read-out: MIC
[9] = S. aureus ATCC 43300 (MRSA), read-out: MIC
[10] = S. aureus ATCC 700699 (VISA), read-out: MIC
[11] = E. spp. cloacae ATCC 13047, read-out: MIC
[12] = E. faecium ATCC 700221, read-out: MIC
[13] = K. pneumoniae ATCC 10031, read-out: MIC
[14] = E. coli DNA gyrase, read-out: IC50
[15] = S. aureus DNA gyrase, read-out: IC50
[16] = E. coli topo IV, read-out: RA (residual activity of the enzyme)

Compound	MIC (A. baumannii ATCC 17978; [4]) [mg/L]	MIC (E. faecalis ATCC 29212; [5]) [mg/L]	MIC (S. aureus ATCC 29213; [6]) [mg/L]	MIC (E. coli ATCC 25922; [7]) [mg/L]	MIC (P. aeruginosa ATCC 27853; [8]) [mg/L]	MIC [1, 9] [mg/L]	MIC [2, 10] [mg/L]	MIC [3, 11] [mg/L]	MIC (E. faecium ATCC 700221; [12]) [mg/L]	MIC (K. pneumoniae ATCC 10031; [13]) [mg/L]	IC50 (E. coli DNA gyrase; [14]) [µM]	remaining activity at 10 µM (E. coli topoisomerase IV; [16]) [%]	also measured
Cc1[nH]c(C(=O)Nc2ccc(-n3nn[nH]c3=O)cc2N2CC[C@H](N)C2)c(Cl)c1Cl.Cl [Example 22, (S)-1-(2-(3,4-Dichloro-5-methyl-1H-pyrrole-2-carboxamido)-5-(5-oxo-4,5-dihydro-1H-tetrazol-1-yl)phenyl)pyrrolidin-3-aminium chloride]	≥ 32	> 64	≥ 32	≥ 32	≥ 32	≥ 32	> 64	≥ 32	≥ 32	≥ 32	0.0049	26	IC50 (S. aureus DNA gyrase; [15]): 0.121 µM; remaining activity at 1 µM (E. coli topoisomerase IV; [16]): 97%
Cc1[nH]c(C(=O)Nc2ccc(-c3n[nH]c(=O)o3)cc2OCCC2CCNCC2)c(Cl)c1Cl.Cl [Example 29, 4-(2-(2-(3,4-Dichloro-5-methyl-1H-pyrrole-2-carboxamido)-5-(5-oxo-4,5-dihydro-1,3,4-oxadiazol-2-yl)phenoxy)ethyl)piperidin-1-ium chloride]	≥ 32	≥ 32	≥ 32	≥ 32	≥ 32	≥ 32	≥ 32	≥ 32	≥ 32	≥ 32		103	remaining activity at 0.01 µM (E. coli DNA gyrase; E. coli DNA gyrase, 10 nM compound, read-out: RA (residual activity of the enzyme)): 1%
Cc1[nH]c(C(=O)Nc2ccc(-n3nn[nH]c3=O)cc2N2Cc3ccccc3C2)c(Cl)c1Cl [Example 25, 3,4-Dichloro-N-(2-(isoindolin-2-yl)-4-(5-oxo-4,5-dihydro-1H-tetrazol-1-yl)phenyl)-5-methyl-1H-pyrrole-2-carboxamide]	> 64	0.25 (≈ 0.532 µM)	16 (≈ 34 µM)	> 64	> 64	> 64	> 64	> 64	0.5 (≈ 1.06 µM)	> 64		105	remaining activity at 10 pM (E. coli DNA gyrase; E. coli DNA gyrase, 0.01 nM compound, read-out: RA (residual activity of the enzyme)): 73%; remaining activity at 0.0001 µM (E. coli DNA gyrase; E. coli DNA gyrase, 0.1 nM compound, read-out: RA (residual activity of the enzyme)): 26%
Cc1[nH]c(C(=O)Nc2ccc(-c3noc(=O)[nH]3)cc2N2CCCC(CN)C2)c(Cl)c1Cl.Cl (stereo not drawn) [Example 3, (1-(2-(3,4-Dichloro-5-methyl-1H-pyrrole-2-carboxamido)-5-(5-oxo-4,5-dihydro-1,2,4-oxadiazol-3-yl)phenyl)piperidin-3-yl)methanaminium chloride]	> 64	0.25	4	> 64	> 64	4	2	> 64	2	2	0.00319		IC50 (S. aureus DNA gyrase; [15]): 0.0241 µM; IC50 (E. coli topoisomerase IV; E. coli topo IV, read-out: IC50): 0.0418 µM
Cc1[nH]c(C(=O)Nc2ccc(-c3noc(=O)[nH]3)cc2NC2CCNCC2)c(Cl)c1Cl.Cl [Example 4, 4-((2-(3,4-Dichloro-5-methyl-1H-pyrrole-2-carboxamido)-5-(5-oxo-4,5-dihydro-1,2,4-oxadiazol-3-yl)phenyl)amino)piperidin-1-ium chloride]													MIC (A. baumannii ATCC 17978): > 64 mg/L; MIC (E. faecalis ATCC 29212): > 64 mg/L; MIC (S. aureus ATCC 29213): > 64 mg/L; MIC (E. coli ATCC 25922): > 64 mg/L; MIC (P. aeruginosa ATCC 27853): > 64 mg/L; MIC [1]: > 64 mg/L; MIC [2]: > 64 mg/L; MIC [3]: > 64 mg/L; MIC (E. faecium ATCC 700221): > 64 mg/L; MIC (K. pneumoniae ATCC 10031): > 64 mg/L; IC50 (E. coli DNA gyrase): 0.00966 µM; IC50 (S. aureus DNA gyrase): 0.249 µM; IC50 (E. coli topoisomerase IV): 1.18 µM
Cc1[nH]c(C(=O)Nc2ccc(-c3n[nH]c(=O)o3)cc2OCc2ccccc2)c(Cl)c1Cl [Example 11, N-(2-(Benzyloxy)-4-(5-oxo-4,5-dihydro-1,3,4-oxadiazol-2-yl)phenyl)-3,4-dichloro-5-methyl-1H-pyrrole-2-carboxamide]	≥ 32	≥ 32	≥ 32	≥ 32	≥ 32	≥ 32	≥ 32	≥ 32	≥ 32	≥ 32	0.886	106	
Cc1[nH]c(C(=O)Nc2ccc(-c3noc(=O)[nH]3)cc2N2CCC(N)CC2)c(Cl)c1Cl.Cl [Example 1, 1-(2-(3,4-Dichloro-5-methyl-1H-pyrrole-2-carboxamido)-5-(5-oxo-4,5-dihydro-1,2,4-oxadiazol-3-yl)phenyl)piperidin-4-aminium chloride]	≥ 64	32	64	≥ 64	≥ 64	32	16	≥ 64	32	64	0.000253		remaining activity at 0.1 µM (E. coli topoisomerase IV; E. coli topo IV, 0.1 μM compound, read-out: RA (residual activity of the enzyme)): 105%; remaining activity at 1 µM (E. coli topoisomerase IV; [16]): 33%
